This assay has as its system test plant species. The assay is described as follows: Post-emergent herbicidal activity test (greenhouse, foliar spray, visual growth reduction). Format: in vivo. Conditions: post-emergence, 336 h, 140 g ai/ha. In a few lines:
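Greenhouse plants at first–second true leaf stage sprayed overhead at 187 L/ha with compound in acetone/water/isopropanol/DMSO/crop oil/X-77 carrier; controls received solvent blank. Injury rated visually after 14 d on a 0–100% scale versus untreated and control plants, converted to growth reduction.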

[1] abbreviates: ECHCG: barnyardgrass (Echinochloa crus-galli), 14 days after application, read-out: Visual Growth Reduction (%) 14 Days After Application, ECHCG.
Setting [2] is: IPOHE: ivy-leaf morning glory (Ipomoea hederacea), 14 days after application, read-out: Visual Growth Reduction (%) 14 Days After Application, IPOHE.
Setting [3] is: KCHSC: kochia (Bassia scoparia), 14 days after application, read-out: Visual Growth Reduction (%) 14 Days After Application, KCHSC.
The mark [4] stands for this setting: ORYSA: rice (Oryza sativa), 14 days after application, read-out: Visual Growth Reduction (%) 14 Days After Application, ORYSA.
The mark [5] stands for this setting: SETFA: giant foxtail (Setaria faberi), 14 days after application, read-out: Visual Growth Reduction (%) 14 Days After Application, SETFA.
The mark [6] stands for this setting: SORVU: grain sorghum (Sorghum vulgare), 14 days after application, read-out: Visual Growth Reduction (%) 14 Days After Application, SORVU.
Setting [7] is: STEME: common chickweed (Stellaria media), 14 days after application, read-out: Visual Growth Reduction (%) 14 Days After Application, STEME.
Where [8] appears, read: TRZAS: wheat, spring (Triticum aestivum), 14 days after application, read-out: Visual Growth Reduction (%) 14 Days After Application, TRZAS.
[9] abbreviates: blackgrass (Alopecurus myosuroides), 14 Days After Application, read-out: Visual Growth Reduction (%) ALOMY.
The mark [10] stands for this setting: canada thistle (Cirsium arvense), 14 Days After Application, read-out: Visual Growth Reduction (%) CIRAR.
The mark [11] stands for this setting: crabgrass (Digitaria sanguinalis), 14 Days After Application, read-out: Visual Growth Reduction (%) DIGSA.
The mark [12] stands for this setting: lambsquarters (Chenopodium album), 14 Days After Application, read-out: Visual Growth Reduction (%) CHEAL.
Where [13] appears, read: redroot pigweed (Amaranthus retroflexus), 14 Days After Application, read-out: Visual Growth Reduction (%) AMARE.
Setting [14] is: wild oat (Avena fatua), 14 Days After Application, read-out: Visual Growth Reduction (%) AVEFA.
Where [15] appears, read: yellow nutsedge (Cyperus esculentus), 14 Days After Application, read-out: Visual Growth Reduction (%) CYPES.

SMILES strings stand for the structures. Like-named read-outs stand apart in the source and are kept apart here.

Turning to `COC(=O)c1nc(-c2ccc3c(c2)C(F)(F)OC(F)(F)O3)ccc1Cl` [F203, Methyl 3-chloro-6-(2,2,4,4-tetrafluoro-4H-benzo[d][1,3]dioxin-6-yl) picolinate], the pest or weed control at 140 g/ha fell in the range of 0 to 29% under setting [1]; 30 to 44% under setting [2]; 0 to 29% under setting [3]; 0 to 29% under setting [4]; 0 to 29% under setting [5]; 0 to 29% under setting [6]. The pest or weed control at 140 g/ha under setting [7] fell in the range of 0 to 29%; the pest or weed control at 140 g/ha under setting [8] was 0 to 29%; the pest or weed control at 140 g/ha under setting [9] is 0 to 29%; the pest or weed control at 140 g/ha under setting [10] fell in the range of 0 to 29%; the pest or weed control at 140 g/ha under setting [11] is 0 to 29%; the pest or weed control at 140 g/ha under setting [12] was 0 to 29%. Further, the pest or weed control at 140 g/ha under setting [13] was in the range of 0 to 29%, the pest or weed control at 140 g/ha under setting [14] was 0 to 29% and the pest or weed control at 140 g/ha under setting [15] was 0 to 29%.

On to `COC(=O)c1nc(-c2ccc3c(c2)C(F)(F)OC(F)(F)O3)c(F)cc1Cl` [F204, Methyl 3-chloro-5-fluoro-6-(2,2,4,4-tetrafluoro-4H-benzo[d][1,3]dioxin-6-yl)picolinate], for which the pest or weed control at 140 g/ha reads like this: under setting [1], 0 to 29%; under setting [2], 30 to 44%; under setting [3], 0 to 29%; under setting [4], 0 to 29%; under setting [5], 0 to 29%; under setting [6], 0 to 29%. The pest or weed control at 140 g/ha is, setting by setting: under setting [7], 0 to 29%; under setting [8], 0 to 29%; under setting [9], 0 to 29%; under setting [10], 0 to 29%; under setting [11], 0 to 29%; under setting [12], 0 to 29%. The pest or weed control at 140 g/ha runs as follows: under setting [13], 0 to 29%; under setting [14], 0 to 29%; under setting [15], 0 to 29%.

With `O=C(O)c1nc(-c2cnc(C(F)(F)F)cc2Cl)ccc1Cl` [F205, 4′,5-Dichloro-6′-(trifluoromethyl)-[2,3′-bipyridine]-6-carboxylic acid], the pest or weed control at 140 g/ha lay within 45 to 59% under setting [1]; 95 to 100% under setting [2]; 0 to 29% under setting [3]; 0 to 29% under setting [4]; 75 to 84% under setting [5]; 75 to 84% under setting [6]. Further, the pest or weed control at 140 g/ha by setting is: under setting [7], 0 to 29%; under setting [8], 0 to 29%; under setting [9], 0 to 29%; under setting [10], 75 to 84%; under setting [11], 45 to 59%; under setting [12], 75 to 84%. Besides, the pest or weed control at 140 g/ha by setting is: under setting [13], 30 to 44%; under setting [14], 0 to 29%; under setting [15], 0 to 29%.

As for `COC(=O)c1nc(-c2c(Cl)cc(C(F)(F)F)cc2[N+](=O)[O-])ccc1Cl` [F206, Methyl 3-chloro-6-(2-chloro-6-nitro-4-(trifluoromethyl)phenyl)picolinate], the pest or weed control at 140 g/ha reads like this: under setting [1], 0 to 29%; under setting [2], 95 to 100%; under setting [3], 30 to 44%; under setting [4], 75 to 84%; under setting [5], 75 to 84%; under setting [6], 75 to 84%. Moreover, the pest or weed control at 140 g/ha lay within 0 to 29% under setting [7]; 0 to 29% under setting [8]; 0 to 29% under setting [9]; 30 to 44% under setting [10]; 45 to 59% under setting [11]; 30 to 44% under setting [12]. Also, the pest or weed control at 140 g/ha by setting is: under setting [13], 45 to 59%; under setting [14], 0 to 29%; under setting [15], 0 to 29%.

With `Cc1cnc(-c2ccc(Cl)c(C(=O)O)n2)c(F)c1` [F208, 5-Chloro-3′-fluoro-5′-methyl-[2,2′-bipyridine]-6-carboxylic acid], the pest or weed control at 140 g/ha under setting [1] lay in the range of 0 to 29%; the pest or weed control at 140 g/ha under setting [2] was 0 to 29%; the pest or weed control at 140 g/ha under setting [3] was in the range of 0 to 29%; the pest or weed control at 140 g/ha under setting [4] lay in the range of 0 to 29%; the pest or weed control at 140 g/ha under setting [5] lay within 0 to 29%; the pest or weed control at 140 g/ha under setting [6] fell in the range of 0 to 29%. Besides, the pest or weed control at 140 g/ha is, setting by setting: under setting [7], 0 to 29%; under setting [8], 0 to 29%; under setting [9], 0 to 29%; under setting [10], 0 to 29%; under setting [11], 0 to 29%; under setting [12], 85 to 94%. Further, the pest or weed control at 140 g/ha fell in the range of 0 to 29% under setting [13], 0 to 29% under setting [14] and 0 to 29% under setting [15].

In the case of `COC(=O)c1nc(-c2ccc(C(F)F)cc2)c(F)cc1Cl` [F209, Methyl 3-chloro-6-(4-(difluoromethyl)phenyl)-5-fluoropicolinate], the pest or weed control at 140 g/ha was in the range of 0 to 29% under setting [1]; 85 to 94% under setting [2]; 0 to 29% under setting [3]; 0 to 29% under setting [4]; 0 to 29% under setting [5]; 0 to 29% under setting [6]. For the same compound, the pest or weed control at 140 g/ha runs as follows: under setting [7], 0 to 29%; under setting [8], 0 to 29%; under setting [9], 0 to 29%; under setting [10], 60 to 74%; under setting [11], 0 to 29%; under setting [12], 85 to 94%. Besides, the pest or weed control at 140 g/ha runs as follows: under setting [13], 45 to 59%; under setting [14], 0 to 29%; under setting [15], 0 to 29%.

In the case of `COC(=O)c1nc(-c2ccc(OC(F)(F)F)cc2Cl)c(F)cc1Cl` [F210, Methyl 3-chloro-6-(2-chloro-4-(trifluoromethoxy)phenyl)-5-fluoropicolinate], the pest or weed control at 140 g/ha was 60 to 74% under setting [1]; 95 to 100% under setting [2]; 75 to 84% under setting [3]; 0 to 29% under setting [4]; 85 to 94% under setting [5]; 95 to 100% under setting [6]. Also, the pest or weed control at 140 g/ha under setting [7] lay in the range of 0 to 29%; the pest or weed control at 140 g/ha under setting [8] fell in the range of 45 to 59%; the pest or weed control at 140 g/ha under setting [9] was in the range of 45 to 59%; the pest or weed control at 140 g/ha under setting [10] is 85 to 94%; the pest or weed control at 140 g/ha under setting [11] fell in the range of 85 to 94%; the pest or weed control at 140 g/ha under setting [12] was in the range of 85 to 94%. The pest or weed control at 140 g/ha by setting is: under setting [13], 95 to 100%; under setting [14], 60 to 74%; under setting [15], 0 to 29%.
